Source: US11583525B2, “Geranylgeranyltransferase I inhibitor for treatment of a PTEN defective cancer” (H. LEE MOFFITT CANCER CENTER AND RESEARCH INSTITUTE, INC., priority 2017, dated 2023)
Peptide text beside a SMILES is read from it. * marks the point of attachment. Cbz = O=C(OCc1ccccc1)*

Legend:
Ca2+ mobilization = assay: Cytosolic Ca2+ mobilization measured with aequorin in NHFs in response to ATP; assay type: cell-based, human; details: NHFs re-stimulated with serum for one hour; ATP stimulation
Procedure: FIGS. 7A, 7B, 7C, 7D, 7E, 7F, 7G, 7H, and 7I show FBXL2 controls Ca2+ mobilization and Ca2+-mediated apoptosis. […] Quantification of three independent experiments is shown and represented as percentage increase compared to EXP cells, which were set as 100%. P values were calculated by one-way ANOVA and multiple-comparisons test. Error bars indicate s.e.m. […] Quantifications and P value analyses was performed as in a. […] On the left, representative traces. On the right, quantification of three independent experiments. P values were calculated by a one-way ANOVA and multiple-comparisons test. Error bars indicate s.e.m. […] Concentrations of cytosolic (7d) and mitochondrial (7e) Ca2+ were measured with the appropriate aequorin in response to agonist stimulation (ATP). […] On the right, quantifications of three independent experiments. P values were calculated by one-way ANOVA and multiple-comparisons test. […] P values were calculated by unpaired t-test. […] Induction of cell death was evaluated after treatment with H2O2 using automated nuclei count analysis of twenty randomly chosen fields. P values were calculated by one-way ANOVA and multiple-comparisons test. […] Left, representative traces showing concentrations of mitochondrial Ca2+ measured with mitochondrial targeted aequorin. Right, quantification of three independent experiments. P values were calculated by one-way ANOVA and multiple-comparisons test. […]

IP3R3 = assay: Serum-mediated degradation of IP3R3 in serum-starved, serum re-stimulated NHFs (immunoblotting); assay type: cell-based, human; details: NHFs serum-starved 72 h, re-stimulated with serum; 10 μM MG132, 10 μM Eer1
Procedure: 24 h post-transfection, cells were treated with MG132 for 3 h before harvesting for immunoprecipitation and immunoblotting as indicated. WCL, whole-cell lysate from untransfected cells. […] After harvesting, cells were lysed, and cell membranes (CM) were isolated and immunoprecipitated with either a normal mouse IgG or an anti-Flag antibody. Subsequently, immunoprecipitates were analysed by immunoblotting as indicated. The results of these experiments (n=2) indicate that FBXL2 is incorporated into a complete SCF ligase that binds its substrate(s) at cellular membranes. […] After harvesting, cells were lysed and cytoplasmic (CYTO) and cell membrane (CM) fractions were isolated and analysed by immunoblotting as indicated. Actin and calnexin are used as markers for cytoplasmic and cell membrane fractions, respectively. This experiment was performed twice. […] 24 h post-transfection, where indicated, cells were treated with MG132 for 3 h before harvesting for immunoprecipitation and immunoblotting. Ned. CUL1, neddylated CUL1. […] The experiment was performed in the presence or absence of MG132 as indicated. Whole-cell lysates were immunoblotted as indicated. The asterisk indicates a non-specific band. This experiment was performed twice. […] P values were calculated by unpaired t-test. Error bars indicate s.e.m. […] Error bars indicate s.e.m. The values represent the ratios between FBXL2 and GAPDH mRNAs. […] Cells were subsequently stimulated with medium containing serum and harvested at the indicated times for immunoblotting. […] Error bars indicate s.e.m. […] Cells were subsequently stimulated with medium containing serum and harvested at the indicated time points for immunoblotting. […] Error bars indicate s.e.m. […] Exon 2 and exon 3 refer to the human FBXL2 gene in NC_000003.12 (GRCh38.p7 (Gene Bank ID: 3129728)). […]
FIGS. 6A, 6B, 6C, 6D, 6E, 6F, 6G, and 6H that the degradation of IP3R3 is dependent on FBXL2 localization to cell membranes and on the segregase activity of p97. […] Samples were analysed by immunoblotting with the indicated antibodies. […]

## Cc1nc[nH]c1CN1CCN(C(=O)N[C@@H](CC(C)C)C(=O)O)[C@@H](Cc2ccccc2)C1=O [GGTi-2418]
Ca2+ mobilization
  serum-mediated decrease in Ca2+ mobilization: inhibited the serum-mediated decrease in Ca2+ mobilization

## CC(C)C[C@@H](C=O)NC(=O)[C@H](CC(C)C)NC(=O)[C@H](CC(C)C)NC(=O)OCc1ccccc1 [MG132] (Cbz-Leu-Leu-Leu-aldehyde)
IP3R3
  IP3R3 levels / degradation after serum re-stimulation: much less
Ca2+ mobilization
  serum-mediated decrease in Ca2+ mobilization: inhibited the serum-mediated decrease in Ca2+ mobilization
